Like-named read-outs stand apart in the source and are kept apart here.

Among the data in US20230017045A1, “PYRIDINE AND PYRIMIDINE CARBOXYLATE HERBICIDES AND METHODS OF USE THEREOF” (Dow AgroSciences LLC, priority 2017, published 2023) are pest or weed control values, retold here.

This experiment has as its system test plant species. Description: Post-emergent herbicidal activity test (greenhouse, foliar spray, visual growth reduction). The conditions noted are these: post-emergence, 336 h, 140 g ai/ha. The class given is in vivo. Here is the method:
Post-emergent Test: Seeds or nutlets of the desired test plant species were planted in Sun Gro Metro-Mix® 360 planting mixture, which typically has a pH of 6.0 to 6.8 and an organic matter content of about 30 percent, in plastic pots with a surface area of 64 square centimeters. In some aspects, to ensure good germination and healthy plants, a fungicide treatment and/or other chemical or physical treatment was applied. The plants were grown for 7-21 d in a greenhouse with an approximate 15 h photoperiod which was maintained at 23-29° C. during the day and 22-28° C. during the night. Nutrients and water were added on a regular basis and supplemental lighting was provided with overhead metal halide 1000-Watt lamps as necessary. Plants were used for testing when they reached the first or second true leaf stage. A weighed amount, determined by the highest rate to be tested, of each test compound was placed in a 25 mL glass vial and was dissolved in 4 mL of a 97:3 v/v mixture of acetone and DMSO to obtain concentrated stock solutions. […] The concentrated stock solutions obtained were diluted with 20 mL of an aqueous mixture containing acetone, water, isopropyl alcohol, DMSO, […] crop oil concentrate, and X-77 surfactant in a 48.5:39:10:1.5:1.0:0.02 v/v ratio to obtain spray solutions containing the application rate. Compound requirements are based upon a 12 mL application volume at a rate of 187 liters per hectare (L/ha). Formulated compounds were applied to the plant material with an overhead Mandel track sprayer equipped with […] nozzles calibrated to deliver 187 L/ha over an application area of 0.64 square meters at a spray height of 18 inches (43 cm) above the average plant canopy height. Control plants were sprayed in the same manner with the solvent blank. The treated plants and control plants were placed in a greenhouse as described above and watered by subirrigation to prevent wash-off of the test compounds. After 14 d, the condition of the test plants as compared with that of the nontreated and control plants was determined visually and scored on a scale of 0 to 100 percent where 0 corresponds to no injury and 100 corresponds to complete control. In the reporting of the results, Table A: Percent Growth Reduction Conversion Table was used.

Where [1] appears, read: ALOMY: blackgrass (Alopecurus myosuroides), 14 days after application, read-out: Visual Growth Reduction (%) 14 Days After Application, ALOMY.
Setting [2] is: AMARE: redroot pigweed (Amaranthus retroflexus), 14 days after application, read-out: Visual Growth Reduction (%) 14 Days After Application, AMARE.
Setting [3] is: AVEFA: wild oat (Avena fatua), 14 days after application, read-out: Visual Growth Reduction (%) 14 Days After Application, AVEFA.
The mark [4] stands for this setting: CHEAL: lambsquarters (Chenopodium album), 14 days after application, read-out: Visual Growth Reduction (%) 14 Days After Application, CHEAL.
Setting [5] is: CIRAR: canada thistle (Cirsium arvense), 14 days after application, read-out: Visual Growth Reduction (%) 14 Days After Application, CIRAR.
Where [6] appears, read: CYPES: yellow nutsedge (Cyperus esculentus), 14 days after application, read-out: Visual Growth Reduction (%) 14 Days After Application, CYPES.
Where [7] appears, read: DIGSA: crabgrass (Digitaria sanguinalis), 14 days after application, read-out: Visual Growth Reduction (%) 14 Days After Application, DIGSA.
The mark [8] stands for this setting: barnyardgrass (Echinochloa crus-galli), 14 Days After Application, read-out: Visual Growth Reduction (%) ECHCG.
Where [9] appears, read: common chickweed (Stellaria media), 14 Days After Application, read-out: Visual Growth Reduction (%) STEME.
[10] abbreviates: giant foxtail (Setaria faberi), 14 Days After Application, read-out: Visual Growth Reduction (%) SETFA.
[11] abbreviates: ivy-leaf morning glory (Ipomoea hederacea), 14 Days After Application, read-out: Visual Growth Reduction (%) IPOHE.
Setting [12] is: johnsongrass (Sorghum vulgare), 14 Days After Application, read-out: Visual Growth Reduction (%) SORVU.
The mark [13] stands for this setting: kochia (Bassia scoparia), 14 Days After Application, read-out: Visual Growth Reduction (%) KCHSC.
The mark [14] stands for this setting: rice (Oryza sativa), 14 Days After Application, read-out: Visual Growth Reduction (%) ORYSA.
The mark [15] stands for this setting: wheat, spring (Triticum aestivum), 14 Days After Application, read-out: Visual Growth Reduction (%) TRZAS.

For the molecule `COC(=O)c1nc(-c2ccc(C(F)(F)F)nc2Cl)ccc1Cl` [F8, Methyl 2′,5-dichloro-6′-(trifluoromethyl)-[2,3′-bipyridine]-6-carboxylate], the pest or weed control at 140 g/ha reads like this: under setting [1], 0 to 29%; under setting [2], 95 to 100%; under setting [3], 0 to 29%; under setting [4], 95 to 100%; under setting [5], 85 to 94%; under setting [6], 45 to 59%. The pest or weed control at 140 g/ha under setting [7] lay in the range of 60 to 74%; the pest or weed control at 140 g/ha under setting [8] lay within 30 to 44%; the pest or weed control at 140 g/ha under setting [9] is 0 to 29%; the pest or weed control at 140 g/ha under setting [10] was in the range of 0 to 29%; the pest or weed control at 140 g/ha under setting [11] lay within 95 to 100%; the pest or weed control at 140 g/ha under setting [12] was 85 to 94%. In addition, the pest or weed control at 140 g/ha runs as follows: under setting [13], 85 to 94%; under setting [14], 0 to 29%; under setting [15], 30 to 44%.
In the case of `COC(=O)c1nc(-c2ccc(C(F)(F)F)cc2Cl)ccc1C(F)(F)F` [F9, Methyl 6-(2-chloro-4-(trifluoromethyl)phenyl)-3-(trifluoromethyl) picolinate], the pest or weed control at 140 g/ha runs as follows: under setting [1], 0 to 29%; under setting [2], 30 to 44%; under setting [3], 0 to 29%; under setting [4], 0 to 29%; under setting [5], 0 to 29%; under setting [6], 0 to 29%. The pest or weed control at 140 g/ha by setting is: under setting [7], 0 to 29%; under setting [8], 0 to 29%; under setting [9], 0 to 29%; under setting [10], 0 to 29%; under setting [11], 45 to 59%; under setting [12], 0 to 29%. Besides, the pest or weed control at 140 g/ha is, setting by setting: under setting [13], 0 to 29%; under setting [14], 0 to 29%; under setting [15], 0 to 29%.
With `COC(=O)c1nc(-c2ccc(C(F)(F)F)cc2Cl)ccc1C#N` [F10, Methyl 6-(2-chloro-4-(trifluoromethyl)phenyl)-3-cyanopicolinate], the pest or weed control at 140 g/ha by setting is: under setting [1], 0 to 29%; under setting [2], 30 to 44%; under setting [3], 0 to 29%; under setting [4], 45 to 59%; under setting [5], 30 to 44%; under setting [6], 45 to 59%. The pest or weed control at 140 g/ha by setting is: under setting [7], 45 to 59%; under setting [8], 0 to 29%; under setting [9], 0 to 29%; under setting [10], 0 to 29%; under setting [11], 60 to 74%; under setting [12], 30 to 44%. Moreover, the pest or weed control at 140 g/ha reads like this: under setting [13], 0 to 29%; under setting [14], 0 to 29%; under setting [15], 0 to 29%.
As to `COC(=O)c1nc(-c2ccc(C(F)(F)F)cc2Cl)cc(C#N)c1Cl` [F11, Methyl 3-chloro-6-(2-chloro-4-(trifluoromethyl)phenyl)-4-cyanopicolinate], the pest or weed control at 140 g/ha under setting [1] lay within 0 to 29%; the pest or weed control at 140 g/ha under setting [2] was 0 to 29%; the pest or weed control at 140 g/ha under setting [3] lay within 0 to 29%; the pest or weed control at 140 g/ha under setting [4] lay in the range of 0 to 29%; the pest or weed control at 140 g/ha under setting [5] was 30 to 44%; the pest or weed control at 140 g/ha under setting [6] lay within 0 to 29%. Further, the pest or weed control at 140 g/ha runs as follows: under setting [7], 0 to 29%; under setting [8], 0 to 29%; under setting [10], 0 to 29%; under setting [11], 30 to 44%; under setting [12], 0 to 29%; under setting [13], 0 to 29%. Besides, the pest or weed control at 140 g/ha by setting is: under setting [14], 0 to 29%; under setting [15], 0 to 29%.
For the molecule `COC(=O)c1nc(-c2ccc(C(F)(F)F)cc2F)ccc1Cl` [F12, Methyl 3-chloro-6-(2-fluoro-4-(trifluoromethyl)phenyl)picolinate], the pest or weed control at 140 g/ha lay in the range of 0 to 29% under setting [1]; 85 to 94% under setting [2]; 0 to 29% under setting [3]; 95 to 100% under setting [4]; 60 to 74% under setting [5]; 60 to 74% under setting [6]. The pest or weed control at 140 g/ha fell in the range of 75 to 84% under setting [7]; 0 to 29% under setting [8]; 0 to 29% under setting [9]; 0 to 29% under setting [10]; 95 to 100% under setting [11]; 75 to 84% under setting [12]. For the same molecule, the pest or weed control at 140 g/ha is 0 to 29% under setting [13], 0 to 29% under setting [14] and 0 to 29% under setting [15].
Turning to `COC(=O)c1nc(-c2ccc(C3CC3(F)F)cc2Cl)ccc1Cl` (centres unmarked) [F13, methyl 3-chloro-6-(2-chloro-4-(2,2 difluorocyclopropyl)phenyl) picolinate], the pest or weed control at 140 g/ha runs as follows: under setting [1], 0 to 29%; under setting [2], 75 to 84%; under setting [3], 0 to 29%; under setting [4], 85 to 94%; under setting [5], 85 to 94%; under setting [6], 0 to 29%. Besides, the pest or weed control at 140 g/ha lay in the range of 0 to 29% under setting [7]; 0 to 29% under setting [8]; 0 to 29% under setting [9]; 0 to 29% under setting [10]; 95 to 100% under setting [11]; 60 to 74% under setting [12]. Moreover, the pest or weed control at 140 g/ha is, setting by setting: under setting [13], 60 to 74%; under setting [14], 0 to 29%; under setting [15], 0 to 29%.
Turning to `COC(=O)c1nc(-c2ccc(C(C)F)cc2Cl)ccc1Cl` (centres unmarked) [F14, methyl 3-chloro-6-(2-chloro-4-(1-fluoroethyl)phenyl)-picolinate], the pest or weed control at 140 g/ha under setting [1] was 0 to 29%; the pest or weed control at 140 g/ha under setting [2] lay within 0 to 29%; the pest or weed control at 140 g/ha under setting [3] fell in the range of 0 to 29%; the pest or weed control at 140 g/ha under setting [4] was 85 to 94%; the pest or weed control at 140 g/ha under setting [5] lay in the range of 0 to 29%; the pest or weed control at 140 g/ha under setting [6] was in the range of 0 to 29%. The pest or weed control at 140 g/ha was 0 to 29% under setting [7]; 0 to 29% under setting [8]; 0 to 29% under setting [9]; 0 to 29% under setting [10]; 45 to 59% under setting [11]; 0 to 29% under setting [12]. For the same molecule, the pest or weed control at 140 g/ha by setting is: under setting [13], 85 to 94%; under setting [14], 0 to 29%; under setting [15], 0 to 29%.
